Data reported in PubChem BioAssay (NCI).
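Exposure lasted 48 hours, with cells grown in 96-well plates and compounds tested at five concentrations. GI50 = concentration required for 50% inhibition of growth. At the TGI there is no net growth.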

Columns and labels:
Assay in all cases: NCI tumour cell line growth inhibition, 48 h
[1] = system: HCC-2998 colon
[2] = system: PC-3 prostate
[3] = system: K-562 leukemia
[4] = system: OVCAR-3 ovarian
[5] = system: NCI-H226 lung
[6] = system: SK-MEL-28 melanoma
[7] = system: OVCAR-8 ovarian
[8] = system: NCI/ADR-RES ovarian
[9] = system: ACHN renal
[10] = system: OVCAR-5 ovarian

| Structure (SMILES) | GI50 [1] | TGI [1] | GI50 [2] | TGI [2] | GI50 [3] | TGI [3] | GI50 [4] | TGI [4] | GI50 [5] | TGI [5] | GI50 [6] | TGI [6] | GI50 [7] | TGI [7] | GI50 [8] | TGI [8] | GI50 [9] | TGI [9] | GI50 [10] | TGI [10] |
| --- | --- | --- | --- | --- | --- | --- | --- | --- | --- | --- | --- | --- | --- | --- | --- | --- | --- | --- | --- | --- |
| CCN1C(=S)N(c2ccccc2)C2NC(=S)N(/N=C/C=C/c3ccccc3OC)C21 (stereo not given) | 0.538 µM | > 100 µM | 0.398 µM | > 100 µM | 0.302 µM | > 100 µM | 0.267 µM | 0.721 µM | 0.962 µM | > 23.1 µM | 1.47 µM | > 100 µM | 0.487 µM | > 100 µM | 0.307 µM | > 100 µM | 0.556 µM | > 100 µM | 0.69 µM | > 100 µM |
| CC(C)(Br)C(=O)N1CCN(C(c2ccccc2)c2ccccc2)CC1 |  | > 100 µM |  | > 100 µM |  | > 100 µM |  | 36.8 µM |  | > 100 µM |  | > 100 µM |  | > 100 µM |  | > 100 µM |  | > 100 µM |  | > 100 µM |
| COc1ccc(C2CC(c3cccc(Nc4ccnc5cc(Cl)ccc45)c3)=NN2C=O)cc1 (stereo not given) | 1.68 µM | > 100 µM | 0.577 µM | > 100 µM | 0.33 µM | > 100 µM | 0.383 µM | 3.59 µM | 39.3 µM | > 100 µM | 1.13 µM | 25.6 µM | 1.12 µM | > 100 µM | 0.379 µM | 4.92 µM | 0.867 µM | > 100 µM | 7.61 µM | > 100 µM |
| O=Nc1ccc(O)c(=O)cc1 | 3.35 µM | 13.5 µM | 3.77 µM | 16.2 µM | 0.498 µM | > 100 µM | 1.39 µM | 5.07 µM | 2.5 µM | 8.64 µM | 2.26 µM | 7.02 µM | 2.82 µM | 11 µM | 2.6 µM | 10.6 µM | 0.906 µM | 2.63 µM | 5.49 µM | 17.8 µM |
| CC(N)C(Cc1ccc(Cl)cc1)c1ccc(Cl)cc1 (stereo not given) | 1.96 µM | 4.11 µM | 12.8 µM | 26.3 µM | 3.05 µM | 10.8 µM | 13.8 µM | 27.5 µM | 17.5 µM | 39.3 µM | 3.86 µM | 15.9 µM | 20.4 µM | 52.8 µM | 13.4 µM | 36.9 µM | 4.85 µM | 18.5 µM | 12.4 µM | 27.3 µM |
| CC(C)(CN1CCCCC1)C(=O)/C=C/c1ccc(/C=C/C(=O)C(C)(C)CN2CCCCC2)cc1 |  | 1.07 µM |  | 0.82 µM |  | 0.375 µM |  | 1.17 µM |  | 3.77 µM |  | 2.65 µM |  | 3.57 µM |  | 2.36 µM |  | 0.669 µM |  | 1.57 µM |
| NS(=O)(=O)c1ccc(Nc2cc(-c3cccc(O)c3)[nH]n2)cc1 | > 25 µM | > 25 µM | > 25 µM | > 25 µM | > 25 µM | > 25 µM | 16.2 µM | > 25 µM | > 25 µM | > 25 µM | > 25 µM | > 25 µM | > 22.6 µM | > 25 µM | > 25 µM | > 25 µM | > 25 µM | > 25 µM | > 25 µM | > 25 µM |
| Cc1cccc(N(C)C(=O)[C@@H]2[C@H](O)CCN2c2nc(C)cc(C(F)(F)F)c2C#N)c1 | 22.7 µM | 88.1 µM | 15.4 µM | 67.2 µM | 0.747 µM | > 100 µM | 15.2 µM | 81.3 µM | 23.9 µM | > 100 µM | 24.3 µM | > 100 µM | 28.1 µM | > 100 µM | 22.6 µM | 89.1 µM | 18.3 µM | 41.9 µM | 25.4 µM | 98.2 µM |
| COc1ccc2c(c1)/C(=C\c1c(-c3cc(OC)ccc3OC)nc3sc(C)cn13)C(=O)N2C | 59.7 µM | > 100 µM | 16.3 µM | 93.8 µM | 28 µM | > 100 µM | 15.6 µM | 54.5 µM | 30.9 µM | > 100 µM | 16 µM | 32.3 µM | 28.2 µM | > 100 µM | 27.4 µM | > 100 µM | 28.2 µM | > 100 µM | 55.7 µM | > 100 µM |
| CCN(Cc1ccc(C)cc1)c1ccc(CO)c(Cl)c1 | 10.4 µM | 22.5 µM | 13.3 µM | 29.5 µM | 2 µM | > 50.5 µM | 0.605 µM | 5.31 µM | 0.0702 µM | 0.204 µM | 13.3 µM | 26.2 µM | 10.6 µM | 26.1 µM | 11.1 µM | 25.3 µM | 10.1 µM | 23.2 µM | 0.171 µM | 0.689 µM |
| CCN(CC)c1ccc(/C=N/NC(=O)CSc2nc3ccccc3c(=O)n2CCc2ccc(S(N)(=O)=O)cc2)c(O)c1 | 2.49 µM | > 100 µM | 1.83 µM | > 100 µM | 1.75 µM | > 100 µM | 0.296 µM | > 100 µM | 1.34 µM | > 100 µM | 2.69 µM | > 100 µM | 1.03 µM | > 100 µM | > 100 µM | > 100 µM | 1.75 µM | > 100 µM | 4.4 µM | > 100 µM |
| C/C(=N\NC(=S)N1CCCCC1)c1ccccn1 | 0.243 µM | 6.93 µM | < 0.01 µM | 12.6 µM | < 0.01 µM | 8.76 µM | < 0.01 µM | 1.69 µM | 0.32 µM | 2.95 µM | 1.13 µM | 6.66 µM | < 0.01 µM | 2.42 µM | < 0.01 µM | 6.77 µM | < 0.0116 µM | 7.34 µM | 0.054 µM | 13.7 µM |
| COC[C@@H](N=C1NC(=O)/C(=C/c2ccc3ncccc3c2)S1)c1ccccc1 | 12.3 µM | > 25 µM | 12.1 µM | > 25 µM | 10.3 µM | > 25 µM | 9.38 µM | > 25 µM | 6.88 µM | > 25 µM | 18.8 µM | > 25 µM | 10.2 µM | > 25 µM | 11.6 µM | > 25 µM | 9.24 µM | > 25 µM | > 25 µM | > 25 µM |
